{
  "source": "paper PMC10031741",
  "about": "“A D-cysteine desulfhydrase, SlDCD2, participates in tomato fruit ripening by modulating ROS homoeostasis and ethylene biosynthesis” (Horticulture Research, 2023)",
  "molecular_target": "T1, SlDCD2 (Solanum lycopersicum, UniProt A0A3Q7EA38)",
  "T1 construct": "gene LOC101256906; tag removal not mentioned",
  "T1 sequence (A0A3Q7EA38 1-442)": "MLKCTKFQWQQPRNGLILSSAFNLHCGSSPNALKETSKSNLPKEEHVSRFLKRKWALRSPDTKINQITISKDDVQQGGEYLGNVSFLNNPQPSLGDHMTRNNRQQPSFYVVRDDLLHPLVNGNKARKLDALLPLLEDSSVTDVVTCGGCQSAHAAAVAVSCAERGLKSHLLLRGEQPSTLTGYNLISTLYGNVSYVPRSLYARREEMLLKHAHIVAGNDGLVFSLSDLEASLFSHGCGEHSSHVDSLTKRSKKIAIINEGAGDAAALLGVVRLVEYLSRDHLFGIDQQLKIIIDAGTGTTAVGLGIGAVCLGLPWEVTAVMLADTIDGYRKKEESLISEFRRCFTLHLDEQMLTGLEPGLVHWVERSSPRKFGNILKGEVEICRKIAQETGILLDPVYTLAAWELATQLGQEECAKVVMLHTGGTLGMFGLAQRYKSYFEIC",
  "experiment": "H2S production, methylene blue at […] nm",
  "format": "biochemical",
  "details": "H2S release; assay as in cited reference",
  "data": [
    {"molecule": "N[C@H](CS)C(=O)O", "note": "[D-cysteine]", "values": [
      {"measurement": "H2S production, methylene blue at 670 nm", "value": "Using D-cysteine as the substrate, the enzymatic activity of SlDCD2 was evaluated"}
    ]}
  ]
}
